We go through 4 compounds from patent US20130331417A1, “INSECTICIDAL MIXTURES WITH IMPROVED PROPERTIES” (BAYER INTELLECTUAL PROPERTY GMBH, priority 2010, published 2013).

One data set relates to Myzus persicae. As to the kind of experiment: Myzus persicae test, oil seed rape seed treatment. Conditions: after 2 days. The format is in vivo. The protocol: (§1) The expected efficacy of a given combination of two compounds is calculated as follows (see Colby, S .R., “Calculating Synergistic and antagonistic Responses of Herbicide Combinations”, Weeds 15, pp. 20-22, 1967):
(§2) If the observed insecticidal efficacy of the combination is higher than the one calculated as “E”, then the combination of the two compounds is more than additive, i.e., there is a synergistic effect.
(§3) If not mentioned otherwise, the crystalline modification I of 4-{[(6-chloropyrid-3-yl)methyl](methyl)amino} furan-2(5H)-one has been prepared as a water-dispersible or water-soluble powder in an active ingredient concentration of 70% (wt/wt) involving the following formulation auxiliaries, whereas the amount of auxiliaries sums up to 100 wt. %:
(§4) The auxiliaries were mixed with the appropriate amount of the crystalline modification I of 4-{[(6-chloropyrid-3-yl)methyl](methyl)amino} furan-2(5H)-one. There is no water or solvent added. To enable the dry mixture to stick on the seed, the seed were treated with a minimal amount of water, namely 30 μl for 2 g canola seeds, and 800 μl für 20 g cotton seeds.
Seeds of Oil seed rape were treated with the compounds or mixtures and sown. Ca. […]
After the specified period of time, the mortality in % is determined 100% means that all the aphids have been killed; 0% means that none of the aphids have been killed.

In a further data set the test system is Aphis gossypii. In words: Aphis gossypii test, cotton seed treatment. The format is in vivo. The protocol:
as §1, §2, §3, §4
Cotton seeds were treated with the compounds or mixtures and sown. 10 days after germination the plants were infested with a mixed population of the cotton aphid (Aphis gossypii). After the specified period of time, the mortality in % is determined 100% means that all the aphids have been killed; 0% means that none of the aphids have been killed.

On to `CN(Cc1ccc(Cl)nc1)C1=CC(=O)OC1` [4-{[(6-chloropyrid-3-yl)methyl](methyl)amino} furan-2(5H)-one], for which the Mortality with Myzus persicae (0.025 mg ai/seed, infested ca. 35 days after germination) is 40%; with Aphis gossypii (after 2 days (head above the row), 0.01 mg ai/seed), 60%; in the data set with Aphis gossypii (after 2 days, 0.025 mg ai/seed, infested 10 days after germination), 35%.
`C/C(=N\C#N)N(C)Cc1ccc(Cl)nc1` [Acetamiprid]: in the data set on Myzus persicae (1 mg ai/seed), the Mortality is reported as 0%.
Consider `O=[N+]([O-])NC1=NCCN1Cc1ccc(Cl)nc1` [Imidacloprid], for which the Mortality with Aphis gossypii (after 3 days, 0.01 mg ai/seed) was determined as 0%.
As for `CCOC(=O)OC1=C(c2cc(C)ccc2C)C(=O)N[C@]12CC[C@@H](OC)CC2` [Spirotetramat], the Mortality in the data set with Aphis gossypii (after 2 days, 5 mg ai/seed) turned out to be 0%.
